67 compounds from PubChem BioAssay AID788 (SRMLSC, 2007) can be followed below.

As a reminder, the IC50 is the point on the concentration scale where inhibition reaches its midpoint.

For test [1], the system named is S. cerevisiae vps1Δ apl2Δ growth inhibition, dose response. As to the kind of experiment: vps1Δ apl2Δ double mutant yeast growth inhibitors – S. cerevisiae, background strain comparison, post-Golgi transport modulator project, dose response (AID 788).
The subject of test [2] is S. cerevisiae wild-type background strain growth inhibition. The test is described as above. To be noted: S. cerevisiae vps1Δ apl2Δ growth inhibition, dose response; measured here: wild-type background strain growth.

Activity calls are given as the source filed them. How the calls were made is not given here.

With `CCn1c(=O)[nH]c2cc(C(=O)N3CCN(c4ccccc4)CC3)ccc2c1=O`, the IC50 in test [1] is > 10 µM (inactive); in test [2], greater than 10 µM.
With `CS(=O)(=O)N1CCC(C(=O)NCCN2CCN(Cc3ccccc3)CC2)CC1`, the IC50 in test [1] was > 10 µM (inactive); in test [2], greater than 10 µM.
For `O=C(OCn1ncc(Cl)c(Cl)c1=O)c1ccccc1Cl`, in that order: 15.5 µM and 16.6 µM.
For `Cc1cc(C)c2c(c1)/C(=C/C(=O)c1ccc(Br)s1)C(=O)N2`, the figures for the IC50 in test [1] and in test [2] were 2.73 µM (inactive) and 1.42 µM, respectively.
For `O=C(COc1ccc(Cl)cc1Cl)N1CCN(C/C=C/c2ccccc2)CC1`, in that order: 1.46 µM and 7.14 µM.
Turning to `COc1ccc(-c2nnc(CSc3nc4ccccc4c(=O)n3C)o2)cc1OC`, the IC50 in test [1] is > 10 µM (inactive); in test [2], greater than 10 µM.
`COc1ccc(Nc2nc(N)nc(CSc3nnc(N)s3)n2)cc1`: the IC50 in test [1] was > 10 µM (inactive); in test [2], greater than 10 µM.
On to `O=C(C1COc2ccccc2O1)N1CCN(Cc2ccc3c(c2)OCO3)CC1` (centres undefined), for which the half-maximal inhibitory concentration (IC50) in test [1] is 10.4 µM; in test [2], greater than 10 µM.
For `O=C(Nc1nnc(-c2ccccc2)o1)c1ccc(Cl)cc1`, in that order: 2.46 µM (inactive) and 0.65 µM.
For `O=C(Nc1nnc(C2CC2)o1)c1ccc(S(=O)(=O)N2CCCc3ccccc32)cc1`, in that order: > 10 µM (inactive) and 3.17 µM.
For `O=C(NCC(c1cccnc1)N1CCN(c2ccccc2)CC1)c1ccc2c(c1)OCO2` (centres undefined), the results for the IC50 in test [1] and in test [2] were > 10 µM (inactive) and greater than 10 µM, respectively.
For `CCOC(=O)c1c(NC(=O)CN2CCCCC2)sc2c1CCC(C=O)=C2Cl`, in that order: > 10 µM (inactive) and greater than 10 µM.
As for `O=C(NCc1ccc2c(c1)OCO2)c1ccc(-n2cnnn2)cc1`, the IC50 in test [1] was > 10 µM (inactive); in test [2], greater than 10 µM.
On to `CCN(CC)c1ccc(CN2CC=C(c3ccc(F)cc3)CC2)cc1`, for which the IC50 in test [1] is 9.87 µM; in test [2], 25.8 µM.
For `CC(=O)NC1C(c2nc3ccccc3s2)=C(c2ccccc2)C(=O)N1c1ccc(C)cc1` (centres undefined), in that order: 2.62 µM (inactive) and 1.92 µM.
For `CCc1n[nH]c2c1/C(=N\O)CC(C)(C)C2` the same measures were > 10 µM (inactive) and greater than 10 µM.
For the compound `O=C(Nc1nc(-c2ccccn2)cs1)c1ncc(Cl)c(Cl)c1Cl`, the results for the half-inhibitory concentration (IC50) in test [1] and in test [2] were 4.41 µM and 13.3 µM, respectively.
For `O=C(Nc1cccc(Cl)c1)N1CCN(C/C=C/c2ccccc2)CC1` the same measures were > 10 µM (inactive) and greater than 10 µM.
For `O=[N+]([O-])c1ccc(N2CCN(S(=O)(=O)c3ccc(Cl)cc3)CC2)cc1NCc1cccnc1` the same measures were > 10 µM (inactive) and greater than 10 µM.
For `C=CCc1ccc(OCCCCN2CC(C)OC(C)C2)c(OC)c1` (centres undefined), in that order: 2.33 µM and greater than 10 µM.
As for `CCc1cc2c(=O)c(Oc3ccccc3F)c(C)oc2c(CN(C)C)c1O`, the IC50 in test [1] was > 10 µM (inactive); in test [2] it was greater than 10 µM.
With `CCOC(=O)Cc1c(C)c2ccc(N(CC)CC)cc2oc1=O`, the IC50 is > 10 µM (inactive) in test [1] and greater than 10 µM in test [2].
Turning to `O=C1NC2(Nc3ccccc31)C(=O)Nc1ccccc12` (centres undefined), the IC50 is > 10 µM (inactive) in test [1] and greater than 10 µM in test [2].
In the case of `CCC(C)c1ccc(OCCCCN2CCOCC2)cc1` (centres undefined), the concentration for half-maximal inhibition (IC50) is 4.71 µM in test [1] and greater than 10 µM in test [2].
With `Cc1ccc(C(=O)c2c(NC(=O)c3ccncc3)sc3c2CCCC3)cc1`, the half-inhibitory concentration (IC50) was 16.9 µM in test [1] and greater than 10 µM in test [2].
With `CCOC(=O)NC(Nc1ccc(S(N)(=O)=O)cc1)(C(=O)OCC)C(F)(F)F` (centres undefined), the figures for the IC50 in test [1] and in test [2] were > 10 µM (inactive) and greater than 10 µM, respectively.
For `CC(C)(C)n1nnnc1CN(Cc1cccnc1)Cc1ccccc1Cl`, in that order: > 10 µM (inactive) and greater than 10 µM.
For `Cc1ccn2cc(-c3nonc3C)cc2c1`, in that order: > 10 µM (inactive) and greater than 10 µM.
Consider `O=[N+]([O-])c1ccc(N/N=C/c2c[nH]c3ccccc23)c(S(=O)(=O)Nc2ccc(Cl)cc2)c1`, for which the 50% inhibitory concentration (IC50) in test [1] was 2.15 µM; in test [2], 2.5 µM.
For `O=c1c2cccc3c2c(nn1CN1CCOCC1)-c1ccccc1-3` the same measures were > 10 µM (inactive) and greater than 10 µM.
Turning to `Nc1c(C(=O)OCC2CCCO2)c2nc3ccccc3nc2n1-c1ccc2c(c1)OCCO2` (centres undefined), the results for the IC50 in test [1] and in test [2] were > 10 µM (inactive) and greater than 10 µM, respectively.
For `O=C(NCc1ccco1)C(c1cccs1)N(C(=O)Cc1cccs1)c1ccccc1` (centres undefined), in that order: > 10 µM (inactive) and greater than 10 µM.
For `Cc1ccc(C2N(c3ccc(Cl)c(Cl)c3)C(=O)C3CCCN32)o1` (centres undefined) the same measures were > 10 µM (inactive) and greater than 10 µM.
Regarding `O=C(OCn1nnc2ccccc2c1=O)c1cn(-c2ccccc2)nc1-c1cccnc1`, the results for the IC50 in test [1] and in test [2] were > 10 µM (inactive) and greater than 10 µM, respectively.
For `Clc1ccc2[nH]c3c(NCC4CCCO4)ncnc3c2c1` (centres undefined) the same measures were > 10 µM (inactive) and greater than 10 µM.
In the case of `COc1ccc(C2CC(=O)C3=C(C2)NC(C)=C(C(=O)Nc2ccccc2C)C3c2coc3ccc(C)cc3c2=O)cc1OC` (centres undefined), the values for the IC50 in test [1] and in test [2] were > 10 µM (inactive) and greater than 10 µM, respectively.
For `O=C(Cn1ncc2c3ccccc3n(Cc3ccccc3F)c2c1=O)N1CCC2(CC1)OCCO2` the same measures were > 10 µM (inactive) and greater than 10 µM.
On to `Clc1ccc(-c2n[nH]c3c2CCC3)c(Cl)c1`, for which the figures for the IC50 in test [1] and in test [2] were 1.04 µM (inactive) and 0.518 µM, respectively.
For `Cc1cc(C(C)(C)C)ccc1OCCN1CCCC1`, in that order: 17.1 µM and greater than 10 µM.
For `Cc1ccc(S(=O)(=O)N(CC(=O)N2CCC(C(N)=O)CC2)c2cccc(C(F)(F)F)c2)cc1` the same measures were > 10 µM (inactive) and greater than 10 µM.
For `O=C(C1CCN(S(=O)(=O)c2cccs2)CC1)N1CCCCCC1`, in that order: > 10 µM (inactive) and greater than 10 µM.
As for `CCCC(=O)Nc1ccc(Cl)c(NC(=O)c2cccnc2Cl)c1`, the results for the IC50 in test [1] and in test [2] were > 10 µM (inactive) and greater than 10 µM, respectively.
For `CCCCCOc1ccc(Cl)cc1CN1CCOCC1`, in that order: 20.6 µM and greater than 10 µM.
For `N=c1c2c(-c3ccccc3)c(-c3ccccc3)n(Cc3ccco3)c2ncn1Cc1ccco1`, in that order: 16 µM and 21.5 µM.
For `CCOC(=O)C(C)Oc1ccc2c(C)cc(=O)oc2c1C(C)=O` (centres undefined) the same measures were > 10 µM (inactive) and greater than 10 µM.
`COc1cccc(NC(=O)c2ccc(CN3CCN(c4ccccc4)CC3)cc2)c1`: the IC50 is > 10 µM (inactive) in test [1] and greater than 10 µM in test [2].
Take `Cc1ccc(C2(C(F)(F)F)N=C3Sc4cc(C)cc(C)c4N3C(=O)N2)cc1` (centres undefined): the results for the IC50 in test [1] and in test [2] were 1.5 µM (inactive) and 1.08 µM, respectively.
On to `O=C1c2ccccc2C(=O)c2c1oc(C(F)(F)F)c2C(=O)c1ccccc1`, for which the IC50 is 2.92 µM (inactive) in test [1] and 2.2 µM in test [2].
For `Clc1ccc(-c2cnc(Oc3ccccc3)nc2)cc1`, the IC50 in test [1] is > 10 µM (inactive); in test [2], greater than 10 µM.
For `CCOC(=O)c1ccc(NC(=O)c2cn(-c3ccccc3)nc2-c2ccncc2)cc1`, in that order: 19.1 µM (inactive) and 11.5 µM.
For `CC1CN(CC(O)COc2ccc(C(C)C)cc2)CC(C)O1` (centres undefined) the same measures were 15.2 µM and greater than 10 µM.
For `O=C1OCC(CO)(CO)N=C1NNc1ccc(Cl)c(Cl)c1`, in that order: 2.85 µM and 3.35 µM.
As for `CC1CCCCC1NC(=O)CSc1nnnn1-c1ccccc1` (centres undefined), the IC50 in test [1] is > 10 µM (inactive); in test [2], greater than 10 µM.
For `Cc1cccc(N2CCN(CC(=O)Nc3nccs3)CC2)c1C`, in that order: > 10 µM (inactive) and greater than 10 µM.
Regarding `Fc1ccc(Cn2nnc(-c3ccc(CN4CCOCC4)cc3)n2)cc1`, the concentration for half-maximal inhibition (IC50) is 5.15 µM in test [1] and greater than 10 µM in test [2].
`OC(Cn1ccnc1)c1ccc(Cl)cc1Cl` (centres undefined): the IC50 in test [1] is > 10 µM (inactive); in test [2], greater than 10 µM.
For `O=C(O)Cn1c(SCCOc2ccccc2F)nc2ccccc21` the same measures were > 10 µM (inactive) and greater than 10 µM.
For `CCCn1c(SCc2cc(=O)oc3ccc4ccccc4c23)n[nH]c1=O`, the IC50 in test [1] is > 10 µM (inactive); in test [2] it was greater than 10 µM.
For `Cc1ccc(S(=O)(=O)N2CCN(C3CCN(Cc4ccccc4)CC3)CC2)cc1`, in that order: 24.5 µM and greater than 10 µM.
On to `CCC(C)(C)n1nnnc1C(c1cc2cc3c(cc2[nH]c1=O)OCO3)N1CCN(C)CC1` (centres undefined), for which the IC50 in test [1] is > 10 µM (inactive); in test [2], greater than 10 µM.
For `COc1ccc(CN(C(=O)Cc2cccs2)C(C(=O)NC2CCCC2)c2ccncc2)cc1` (centres undefined), in that order: > 10 µM (inactive) and greater than 10 µM.
For `CCOc1cccc(C(=O)Nc2cccnc2)c1`, in that order: > 10 µM (inactive) and greater than 10 µM.
For `CCCc1cc(NCCCCO)n2c(nc3ccccc32)c1C#N`, in that order: > 10 µM (inactive) and greater than 10 µM.
Turning to `CCCOc1ccccc1N/C(=N/c1nc(C)cc(C)n1)NC(=O)COc1ccc(OC)cc1`, the IC50 is > 10 µM (inactive) in test [1] and greater than 10 µM in test [2].
`Cc1ccc(C(C)C)c(OCCCN2CC(C)OC(C)C2)c1` (centres undefined): the IC50 in test [1] is 9.78 µM; in test [2], greater than 10 µM.
Turning to `CCCCS(=O)(=O)/C=C\C=C/S(=O)(=O)CCCC`, the half-maximal inhibitory concentration (IC50) in test [1] was 12.1 µM; in test [2], 13.9 µM.
As to `CC(C)c1ccc(C2C3CSCC=C3C(C#N)=C(N)C2(C#N)C#N)cc1` (centres undefined), the IC50 in test [1] is 2.08 µM (inactive); in test [2] it was 0.843 µM.
